Measured values taken from patent US12479816B2, “20-HETE formation inhibitors” (UNIVERSITY OF PITTSBURGH—OF THE COMMONWEALTH SYSTEM OF …, priority 2019, dated 2025).
Where two headings read alike, the source gives them in different places.

Assays:
[1] = test system: 20-HETE formation (CYP4) in HLM; test: Inhibition of 20-HETE formation at 250 or 500 nM in HLM microsomal incubations; type: biochemical, human; settings: 500 nM compound; HLM 300 μg/ml, AA 100 μM, 20 min
Summary of the method: (§1)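 Protein 300 μg/ml (microsomes) / 25 pmol/mL (rCYP4F2); AA 100 μM; NADPH 1 mM start; KPi 0.12 M + 5 mM MgCl2; 20 min, 37° C. Read-out: 20-HETE by UPLC-MS/MS (d6 IS), % of vehicle, n=3.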

[2] = test system: 20-HETE formation (CYP4) in HLM; test: IC50 determination, 20-HETE formation in HLM; type: biochemical, human; settings: HLM 300 μg/ml, AA 100 μM, 12 concentrations
Method: Microsomal incubations contained HLM, RLM (300 μg/ml), AA (100 μM), NADPH (1 mM) and test compounds at 12 concentrations (0.1 nM-50 μM) in a 1 ml total volume in microsomal incubation buffer (0.12 M potassium phosphate buffer containing 5 mM magnesium chloride). Reaction was started by adding NADPH to the incubates and was carried out at 37° C. in a shaking water bath for 20 min. Reaction was stopped by placing tubes on ice, followed by adding 12.5 μl 20-HETE-d6 as internal standard to each sample. Microsomal incubations were extracted with 3 ml ethyl ether twice, dried down under nitrogen gas and reconstituted in 125 μl 80:20 methanol:deionized H2O for analysis. 20-HETE formation was quantified using the validated UPLC-MS/MS assay described above and normalized by vehicle group. HET0016 (250 nM) was used as positive control. Incubates without NADPH group served as the negative control. IC50 was determined by fitting the dose-response curve using Graphpad Prism nonlinear regression.

rCYP4F2 = biological target: T1, rCYP4F2 (Homo sapiens, UniProt P78329); test: Inhibition of 20-HETE formation at 250 or 500 nM in rCYP4F2 incubations; type: biochemical; settings: 500 nM compound; rCYP4F2 25 pmol/mL; read-out: rCYP4F2 % inh. @ 500 nM
T1 sequence (P78329 5-520): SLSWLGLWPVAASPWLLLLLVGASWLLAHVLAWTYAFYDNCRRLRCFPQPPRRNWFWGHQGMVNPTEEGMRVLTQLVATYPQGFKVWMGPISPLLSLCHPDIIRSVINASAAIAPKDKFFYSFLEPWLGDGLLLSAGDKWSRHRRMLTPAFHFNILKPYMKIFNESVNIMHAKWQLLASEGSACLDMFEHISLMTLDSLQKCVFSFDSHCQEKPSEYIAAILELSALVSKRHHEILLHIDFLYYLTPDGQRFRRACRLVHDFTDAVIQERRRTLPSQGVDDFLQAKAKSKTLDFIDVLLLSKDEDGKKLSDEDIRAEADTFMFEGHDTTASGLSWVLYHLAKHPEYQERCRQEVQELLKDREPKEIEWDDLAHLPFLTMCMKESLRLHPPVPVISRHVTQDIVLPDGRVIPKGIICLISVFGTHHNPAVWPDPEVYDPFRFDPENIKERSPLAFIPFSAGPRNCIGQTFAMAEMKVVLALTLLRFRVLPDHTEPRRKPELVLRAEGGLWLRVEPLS
Summary of the method: as §1

[3] = HLM stability determination; type: in vitro ADME, human; settings: HLM 500 μg/ml, 1 μM compound, NADPH, relative to 0 min
Method: HLM stability determinations shown in Table 3 were obtained as follows. Microsomal incubates contained HLM (500 μg/ml), test compounds (1 μM) and NADPH (1.3 mM) in a 1 ml total volume of microsomal incubation buffer (0.12 M potassium phosphate buffer containing 5 mM magnesium chloride). Reaction was started by adding NADPH to the incubates and was carried out at 37° C. in a shaking water bath for 60 min. At 0, 15, 30, 45, 60 min, a 50 μl aliquot of incubates was taken out and reaction was stopped by adding aliquot into 200 μl ice-cold acetonitrile. After centrifugation at 14000×g for 5 min, 200 μl supernatant was taken out for UPLC-MS/MS analysis as described above. Values at 0 min were used as corresponding control for test compounds. Varapamil, metoprolol, and warfarin, categorized as fast, moderate and slow metabolism, were used as positive control. Incubates without NADPH group served as negative control.

[4] = test system: 20-HETE formation (CYP4) in RLM; test: Inhibition of 20-HETE formation at 250 or 500 nM in RLM microsomal incubations; type: biochemical, rat; settings: 500 nM compound; RLM 300 μg/ml
Summary of the method: as §1

[5] = Turbidometric solubility determination; type: physicochemical; settings: PBS with 1% DMSO, aqueous buffer, kinetic from dmso stock, room temperature
Summary of the method: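 Precipitation was detected as a significant rise in absorbance at 620 nm over background, and this point set the maximum solubility. Compound was tested in PBS with 1% DMSO at final concentrations from 0 to 600 μM, in triplicate, after 2 h of shaking at room temperature.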

[6] = test system: 20-HETE formation (CYP4) in RKM; test: Inhibition of 20-HETE formation at 250 or 500 nM in RKM microsomal incubations; type: biochemical, rat; settings: 500 nM compound; RKM 300 μg/ml
Summary of the method: as §1

MDR1 (P-gp) = test: BBB penetration potential, MDR1-MDCK permeability; type: in vitro ADME; settings: dog; for Papp A→B at 120 min, 5 μM: apical to basolateral, pH 7.4, read-out: BBB penetration potential MDCK A-B 10−6 cm/s; for Papp B→A at 120 min, 5 μM: basolateral to apical, pH 7.4, read-out: BBB penetration potential MDCK B-A 10−6 cm/s
Method: BBB penetration potential assessment data in Table 1 was obtained as follows. MDR1-MDCK cell monolayers were grown to confluence on collagen-coated, microporous membranes in 12-well assay plates. Atenolol, propranolol and digoxin were used as control to assess plate quality. The permeability assay buffer was Hanks' balanced salt solution containing 10 mM HEPES and 15 mM glucose at a pH of 7.4. The buffer in the receiver chamber also contained 1% bovine serum albumin. The dosing solution concentration was 5 μM of test article in the assay buffer. Cell monolayers were dosed on the apical side (A-to-B) or basolateral side (B-to-A) and incubated at 37° C. with 5% CO2 in a humidified incubator. Samples were taken from the donor and receiver chambers at 120 minutes. Each determination was performed in duplicate the flux of lucifer yellow was also measured post-experimentally for each monolayer to ensure no damage was inflicted to the cell monolayers during the flux period. All samples were assayed by LC-MS/MS using electrospray ionization using a PE SCIEX API 4000 spectrometer and total run time of 1 min. Analytical method/conditions were: Liquid Chromatography Column: Waters ACQUITY UPLC BEH Phenyl 30×2.1 mm, 1.7 m; M.P. Buffer: 25 mM ammonium formate buffer, pH 3.5; Aqueous Reservoir (A): 90% water, 10% buffer; Organic Reservoir (B): 90% acetonitrile, 10% buffer; Flow Rate: 0.7 mL/minute; gradient program: 99% A (t=0 min), 1% A (t=0.65 min), 1% A (t=0.75 min), 99% A (t=0.8 min), 99% A (t=1 min); 5 μL injection volume
The apparent permeability (Papp) and percent recovery were calculated as follows: Papp=(dCr/dt)×Vr/(A×CA) (1) Percent Recovery=100×((Vr×Cr^final)+(Vd×Cd^final))/(Vd×CN) (2)
wherein: • dCr/dt is the slope of the cumulative concentration in the receiver compartment versus time in μMs^−1; • Vr is the volume of the receiver compartment in cm^3; • Vd is the volume of the donor compartment in cm^3; • A is the area of the insert (1.13 cm^2 for 12-well); • CA is the average of the nominal dosing concentration and the measured 120 minute donor concentration in μM; • CN is the nominal concentration of the dosing solution in μM; • Cr^final is the cumulative receiver concentration in μM at the end of the incubation period; • Cd^final is the concentration of the donor in μM at the end of the incubation period. Efflux ratio (ER) is defined as Papp (B-to-A)/Papp (A-to-B) Interpretation Brain Penetration Potential Classification: • Papp (A-to-B)≥3.0 and ER<3.0: High • Papp (A-to-B)≥3.0 and 10>ER≥3.0: Moderate • Papp (A-to-B)≥3.0 and ER≥10, or Papp (A-to-B)<3.0 Low

Row | SMILES | HLM % inh. @ 500 nM [1] [%] | IC50 [2] [µM] | inhibition at 0.5 µM (rCYP4F2) [%] | Stability HLM % @ 30 min [3] [%] | RLM % inh. @ 500 nM [4] [%] | solubility at 2 h ([5]; OD620, read-out: Max Solub) [µM] | solubility at 2 h ([5]; read-out: Solubility_ug/mL) [µg/mL] | RKM % inh. @ 500 nM [6] [%] | Papp A→B at 120 min, 5 μM (MDR1 (P-gp)) [×10⁻⁶ cm/s] | Papp B→A at 120 min, 5 μM (MDR1 (P-gp)) [×10⁻⁶ cm/s]
1 | c1ccc(OC2CCN(c3cn[nH]c3)CC2)cc1 [Compound 14, 4-Phenoxy-1-(1H-pyrazol-4-yl)piperidine] | 53.00 | 0.22 | 60 | 97 | 0.00 |  |  |  |  | 
2 | Cc1ccc(C2CCN(c3ccn[nH]3)CC2)cc1 [Compound 23, 1-(1H-Pyrazol-5-yl)-4-(p-tolyl)piperidine] | 67.40 | 0.11 | 70.8 | 61 | 0.00 | 166 | 40.1 |  |  | 
3 | Cc1ccc(C2CCN(c3cn[nH]c3)CC2)cc1 [Compound 24, 1-(1H-Pyrazol-4-yl)-4-(p-tolyl)piperidine] | 73.80 | 0.08 | 79.9 | 92 | 16.30 | 85.4 | 20.6 |  |  | 
4 | COCc1ccc(C2CCN(c3ccn[nH]3)CC2)cc1 [Compound 25, 4-(4-(Methoxymethyl)phenyl)-1-(1H-pyrazol-5-yl)piperidine] | 56.40 | 0.28 | 67.8 | 100 | 21.30 | 235 | 63.9 |  |  | 
5 | COCc1ccc(C2CCN(c3cn[nH]c3)CC2)cc1 [Compound 26, 4-(4-(Methoxymethyl)phenyl)-1-(1H-pyrazol-4-yl)piperidine] | 71.70 | 0.2 | 81.7 | 100 | 27.80 | 366 | 99.4 |  |  | 
6 | c1ccc(SC2CCN(c3cn[nH]c3)CC2)cc1 [Compound 40, 4-(Phenylthio)-1-(1H-pyrazol-4-yl)piperidine] | 65.80 | 0.1 | 75.9 | 82 | 7.80 | 95.5 | 24.8 |  |  | 
7 | COc1ccc(C2CCN(c3cn[nH]c3)CC2)c(F)c1 [Compound 47, 4-(2-Fluoro-4-methoxyphenyl)-1-(1H-pyrazol-4-yl)piperidine] | 82.00 | 0.08 | 88 | 100 | 63.00 |  |  | 0.00 |  | 
8 | CCS(=O)(=O)c1ccc(C2CCN(c3cn[nH]c3)CC2)cc1 [Compound 52, 4-(4-(Ethylsulfonyl)phenyl)-1-(1H-pyrazol-4-yl)piperidine] | 84.10 | 0.08 | 74.8 | 100 | 13.40 | 244 | 78 |  |  | 
9 | CCS(=O)(=O)c1ccc(C2CCN(c3ccn[nH]3)CC2)cc1 [Compound 58, 4-(4-(Ethylsulfonyl)phenyl)-1-(1H-pyrazol-5-yl)piperidine] | 67.40 | 0.11 | 70.6 | 97 | 0.00 | 394 | 126 |  |  | 
10 | COc1cncc(C2CCN(c3cn[nH]c3)CC2)c1 [Compound 59, 3-(1-(1H-Pyrazol-4-yl)piperidin-4-yl)-5-methoxypyridine] | 63.30 | 0.19 | 73.7 | 98 | 64.40 | > 600 | 155 |  |  | 
11 | COc1cncc(C2CCN(c3ccn[nH]3)CC2)c1 [Compound 60, 3-(1-(1H-Pyrazol-5-yl)piperidin-4-yl)-5-methoxypyridine] | 3.70 |  | 38.4 | 100 | 0.00 |  |  |  |  | 
12 | O=C1CCCN1Cc1ccc(C2CCN(c3cn[nH]c3)CC2)cc1F [Compound 109, 1-(4-(1-(1H-Pyrazol-4-yl)piperidin-4-yl)-2-fluorobenzyl)pyrrolidin-2-one] | 90.30 |  | 86 |  | 62.70 | > 600 |  |  | 10.8 | 77.5
13 | Cc1ccc(CC2CCN(c3cn[nH]c3)CC2)cc1 [Compound 116, 4-(4-Methylbenzyl)-1-(1H-pyrazol-4-yl)piperidine] | 86.40 |  | 89.3 |  | 59.60 | 71 |  |  | 77.4 | 70.3
